Tests used:
[1] = target: JAK1 (Homo sapiens (Human), UniProt P23458); test: JAK1 LANCE Ultra kinase assay; type: biochemical; details: for IC50: 38 uM ATP; for JAK2/JAK1: ratio of IC50 JAK2 to IC50 JAK1
Procedure: Inhibition test on activity of JAK kinase in vitro was carried out by the following methods.
JAK1 LANCE® Ultra assay, JAK2 LANCE® Ultra assay and JAK3 LANCE® Ultra assay were used to carry out the test separately, and kits of the above assays were supplied by PerkinElmer. […]
JAK1, JAK2 and JAK3 kinase, ATP and substrates were dissolved and diluted with buffers.
A test liquid was 2 nM Eu-W1024 anti-phosphotyrosine (PerkinElmer, AD0069). A stop buffer was 10 mM edetic acid (Intech, 1842C505).
2.5 μl of an 8-fold solution of the compound and 5 μl of a 4-fold solution of JAK1 or JAK2 or JAK3 kinase were added into a 384-well plate, respectively, and reacted for 10 minutes at room temperature. 2.5 μl of an 8-fold solution of ULight™-JAK-1 peptide/ATP was added and reacted for 90 minutes at room temperature. Finally, 5 μl of 4-fold edetic acid stop buffer and 5 μl of 4-fold test liquid of Eu-W1024 anti-phosphotyrosine were added and incubated for 60 minutes.
According to the formula: percentage of inhibition rate=(maximum value−transform value)/(maximum value−minimum value)×100, inhibition rate of each compound at various concentrations was calculated. The maximum value was the reference value of dimethyl sulfoxide added into the well plate, the minimum value was the blank value, and the transform value is the value obtained by the well of each compound. The IC50 values of the corresponding compounds were then obtained by fitting by using the XLFit fitting tool in excel.

[2] = target: JAK2 (Homo sapiens (Human), UniProt O60674); test: JAK2 LANCE Ultra kinase assay; type: biochemical; details: 12 uM ATP
JAK2, sequence (O60674 whole entry): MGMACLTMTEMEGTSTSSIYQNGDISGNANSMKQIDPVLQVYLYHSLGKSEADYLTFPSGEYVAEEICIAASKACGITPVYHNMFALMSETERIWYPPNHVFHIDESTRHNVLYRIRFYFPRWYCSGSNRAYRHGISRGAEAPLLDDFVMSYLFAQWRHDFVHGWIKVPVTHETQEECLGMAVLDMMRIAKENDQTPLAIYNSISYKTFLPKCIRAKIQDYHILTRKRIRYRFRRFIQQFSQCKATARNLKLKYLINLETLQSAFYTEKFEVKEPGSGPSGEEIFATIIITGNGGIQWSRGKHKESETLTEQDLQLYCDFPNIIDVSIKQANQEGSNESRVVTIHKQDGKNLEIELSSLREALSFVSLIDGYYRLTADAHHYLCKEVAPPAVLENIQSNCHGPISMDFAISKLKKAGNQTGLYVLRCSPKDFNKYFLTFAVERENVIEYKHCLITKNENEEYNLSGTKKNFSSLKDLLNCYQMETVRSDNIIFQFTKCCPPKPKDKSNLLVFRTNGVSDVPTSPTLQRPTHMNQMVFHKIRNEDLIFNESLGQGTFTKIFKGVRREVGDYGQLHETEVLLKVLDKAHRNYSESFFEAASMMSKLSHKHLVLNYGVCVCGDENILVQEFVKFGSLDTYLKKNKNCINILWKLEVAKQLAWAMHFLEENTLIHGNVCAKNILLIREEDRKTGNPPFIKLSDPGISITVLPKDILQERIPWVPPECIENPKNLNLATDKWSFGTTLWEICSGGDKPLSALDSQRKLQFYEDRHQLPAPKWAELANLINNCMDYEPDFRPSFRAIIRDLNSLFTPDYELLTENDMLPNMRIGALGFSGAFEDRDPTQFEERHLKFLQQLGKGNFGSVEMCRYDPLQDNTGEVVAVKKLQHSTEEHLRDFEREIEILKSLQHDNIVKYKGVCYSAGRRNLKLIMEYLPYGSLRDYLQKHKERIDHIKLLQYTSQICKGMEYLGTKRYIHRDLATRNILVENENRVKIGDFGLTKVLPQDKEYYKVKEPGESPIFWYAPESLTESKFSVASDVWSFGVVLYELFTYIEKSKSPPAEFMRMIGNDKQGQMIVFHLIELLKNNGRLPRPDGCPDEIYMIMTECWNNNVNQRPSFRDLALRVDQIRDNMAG

[3] = target: JAK3 (Homo sapiens (Human), UniProt P52333); test: JAK3 LANCE Ultra kinase assay; type: biochemical; details: 4 uM ATP
JAK3, sequence (P52333 whole entry): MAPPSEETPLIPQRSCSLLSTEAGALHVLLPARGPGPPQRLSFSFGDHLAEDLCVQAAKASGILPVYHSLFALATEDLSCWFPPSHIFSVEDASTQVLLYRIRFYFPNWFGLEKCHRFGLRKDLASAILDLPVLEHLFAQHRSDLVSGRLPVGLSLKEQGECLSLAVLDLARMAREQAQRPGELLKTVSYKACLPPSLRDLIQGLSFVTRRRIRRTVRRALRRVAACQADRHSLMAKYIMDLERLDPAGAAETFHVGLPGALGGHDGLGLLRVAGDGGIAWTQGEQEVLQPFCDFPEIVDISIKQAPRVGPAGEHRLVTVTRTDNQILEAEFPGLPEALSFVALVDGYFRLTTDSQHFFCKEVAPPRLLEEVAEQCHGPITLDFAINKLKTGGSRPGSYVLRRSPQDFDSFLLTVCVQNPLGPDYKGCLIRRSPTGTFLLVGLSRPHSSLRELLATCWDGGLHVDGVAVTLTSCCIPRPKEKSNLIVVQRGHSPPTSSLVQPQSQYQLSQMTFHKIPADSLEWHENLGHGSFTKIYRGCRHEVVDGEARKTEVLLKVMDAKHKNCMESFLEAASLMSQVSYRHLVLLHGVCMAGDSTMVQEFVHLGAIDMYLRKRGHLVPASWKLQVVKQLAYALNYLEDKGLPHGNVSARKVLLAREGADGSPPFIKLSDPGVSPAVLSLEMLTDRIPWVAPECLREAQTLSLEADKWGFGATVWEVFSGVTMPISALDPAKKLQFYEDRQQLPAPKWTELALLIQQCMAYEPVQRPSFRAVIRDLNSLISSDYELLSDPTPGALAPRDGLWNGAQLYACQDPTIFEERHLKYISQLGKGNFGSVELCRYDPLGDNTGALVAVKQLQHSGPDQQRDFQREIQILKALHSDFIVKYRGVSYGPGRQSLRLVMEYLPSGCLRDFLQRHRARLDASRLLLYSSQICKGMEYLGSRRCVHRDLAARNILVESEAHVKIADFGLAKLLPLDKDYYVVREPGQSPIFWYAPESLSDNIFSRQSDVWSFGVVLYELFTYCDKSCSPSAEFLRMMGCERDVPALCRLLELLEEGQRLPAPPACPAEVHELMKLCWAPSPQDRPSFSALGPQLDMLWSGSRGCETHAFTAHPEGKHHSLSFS

[4] = system: Blast T cell; test: Cell proliferation test of IL-2 stimulated Blast T cell; type: cell-based; details: Homo sapiens; IL-2 stimulated Blast T cell proliferation, 72 hours
Procedure: Inhibiting test of the compounds of the invention on proliferation of Blast T cell and TF-1 cell (American type culture collection) was carried out by the following method. The tested compounds […], and […] were dissolved in dimethyl sulfoxide from 0.0006 to 10 μM in quadruplicate dilutions. […] 10 μg/ml […] was added to stimulate and obtain cells with a density of 2×10^6/mL, which were incubated for 3 days. The cells were washed with phosphate buffer for three times and IL-2 (100 u/ml) was added to stimulate for 1 week. Cells were suspended using the culture medium and seeded at 5×10^4 cell/well density into 96-well plates, and incubated for 1 h with the prepared test compound or DMSO control at various concentrations from 0.0006 to 10 μM diluted by 4-fold volume. After incubation with 20 u/ml of IL-2 (50 μl/well without reference well) for 72 hours, Celltiter Glo® reagent (Promega, G7571) was added and mixed for 5 minutes, then incubated for 30 minutes at room temperature. The luminescence value was read on SpectraMax L (Molecular Device). […] The IC50 values of the corresponding compounds were then obtained by fitting by using the XLFit fitting tool in excel.

[5] = system: TF-1 cell; test: TF-1 cell proliferation test; type: cell-based; details: Homo sapiens, 72 h
Procedure: Inhibiting test of the compounds of the invention on proliferation of Blast T cell and TF-1 cell (American type culture collection) was carried out by the following method. The tested compounds […], and […] were dissolved in dimethyl sulfoxide from 0.0006 to 10 μM in quadruplicate dilutions. […] The luminescence value was read on Microplate Reader (Molecular Device). […] The IC50 values of the corresponding compounds were then obtained by fitting by using the XLFit fitting tool in excel.

[6] = system: male ICR mice; test: Carrageenan-induced paw swelling in mice; type: in vivo; details: 10 mg/kg intragastric
Procedure: (§1) The inhibiting effects of compounds H01, H07, H11, H12, H14, H15, H22, H25, H29, H30, H33, H39 and H44 on paw swelling in mice were determined after intragastric administration by using male ICR mice (ShanghaiSippr-BK laboratory animal Co. Ltd.), aged 8 weeks and weighing 22-24 g as test animals. The anti-inflammatory pharmacodynamics characteristic of the compounds of the invention was discussed.
A certain amount of compounds were taken and dissolved in 4% Tween 80/0.5% hydroxy propyl methyl cellulose solution. A volume of intragastric administration in mice was 10 ml/kg.
Mice were given 10 mg/kg compounds H01, H07, H11, H12, H14, H15, H22, H25, H29, H30, H33, H39, and H44 and the positive drug indomethacin (Diamond Reagent Co., Ltd., China) by intragastric administration at the dosages shown in the table below and 20 μL 1% (W/V) carrageenan was injected subcutaneously into the plantar 0.5 h later. A paw volume was measured with a paw swelling meter before and at different time points after modeling (0.5 h, 1 h and 2 h). According to the formula: paw swelling rate=(paw volume after administration−basic paw volume)/basic paw volume×100, the inhibiting effect of the compounds on paw volume was calculated. The basic paw volume was a paw volume before administration.

[7] = system: Sprague-Dawley (SD) mice; test: Concanavalin-induced paw swelling in mice; type: in vivo; details: 10 mg/kg intragastric
Procedure: as §1, with “H13,” for “H01, H07, H11, H12,”, “H09, H11” for “H15, H22, H25, H29, H30, H33, H39”, “compounds of Example 12” for “H44”, “Sprague-Dawley (SD)” for “male ICR”, “6-7” for “8”, “160-180” for “22-24”
A certain amount of compounds were taken and dissolved in 4% Tween 80/0.5% hydroxy propyl methyl cellulose solution.
Mice were given compounds H01, H07, H11, H12, H14, H15, H22, H25, H29, H30, H33, H39, and H44 and the positive drug indomethacin (Diamond Reagent Co., Ltd., China) by intragastric administration at the dosages shown in the table below and 0.1 ml 0.03% (W/V) concanavalin was injected subcutaneously into the plantar 0.5 h later. A paw volume was measured with a paw swelling meter before modeling and 1 h, 2 h, 4 h and 6 h after modeling. According to the formula: paw swelling rate=(paw volume after administration−basic paw volume)/basic paw volume×100, the inhibiting effect of the compounds on paw volume was calculated. The basic paw volume was a paw volume before administration.

JAK1, sequence (P23458 whole entry): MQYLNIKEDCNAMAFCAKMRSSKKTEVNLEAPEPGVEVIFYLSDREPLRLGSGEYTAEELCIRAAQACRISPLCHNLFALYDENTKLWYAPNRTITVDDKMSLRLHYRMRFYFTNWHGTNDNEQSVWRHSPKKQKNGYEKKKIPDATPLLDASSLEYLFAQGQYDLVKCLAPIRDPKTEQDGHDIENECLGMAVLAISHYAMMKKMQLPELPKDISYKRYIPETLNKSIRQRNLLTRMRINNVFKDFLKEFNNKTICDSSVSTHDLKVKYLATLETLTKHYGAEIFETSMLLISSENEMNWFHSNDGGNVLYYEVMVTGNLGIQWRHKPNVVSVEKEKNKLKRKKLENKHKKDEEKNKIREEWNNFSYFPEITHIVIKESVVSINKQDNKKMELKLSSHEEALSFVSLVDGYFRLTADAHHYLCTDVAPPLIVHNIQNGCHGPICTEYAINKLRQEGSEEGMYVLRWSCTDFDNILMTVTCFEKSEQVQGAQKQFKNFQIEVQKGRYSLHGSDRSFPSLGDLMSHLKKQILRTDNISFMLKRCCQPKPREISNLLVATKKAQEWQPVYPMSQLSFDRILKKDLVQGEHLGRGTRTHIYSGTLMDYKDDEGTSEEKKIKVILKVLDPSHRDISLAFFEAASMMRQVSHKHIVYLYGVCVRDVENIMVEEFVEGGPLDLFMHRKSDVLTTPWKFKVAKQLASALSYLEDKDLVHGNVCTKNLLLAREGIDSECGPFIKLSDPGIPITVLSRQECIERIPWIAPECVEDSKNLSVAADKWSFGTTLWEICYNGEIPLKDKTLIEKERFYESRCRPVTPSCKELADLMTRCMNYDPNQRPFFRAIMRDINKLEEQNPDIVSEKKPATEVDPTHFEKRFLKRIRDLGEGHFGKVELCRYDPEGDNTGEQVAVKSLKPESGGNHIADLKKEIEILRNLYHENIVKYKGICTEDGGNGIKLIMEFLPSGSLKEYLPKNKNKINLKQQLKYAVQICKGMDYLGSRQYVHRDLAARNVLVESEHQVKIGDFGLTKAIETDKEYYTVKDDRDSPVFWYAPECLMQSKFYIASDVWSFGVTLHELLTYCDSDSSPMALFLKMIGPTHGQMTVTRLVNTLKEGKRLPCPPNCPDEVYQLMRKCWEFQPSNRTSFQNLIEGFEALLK

| SMILES | IC50 [1] | IC50 [2] | IC50 [3] | JAK2/JAK1 [1] | IC50 [4] | IC50 [5] | other results |
| --- | --- | --- | --- | --- | --- | --- | --- |
| CN(c1c(C#N)cnc2[nH]ccc12)[C@H]1C[C@@H](NS(=O)(=O)c2cccc3nonc23)C1 [Compound H18, (cis)-4-{[3-(benzo[c][1,2,5]oxadiazole-4-sulfonamido)-cyclobutyl-1-yl]-methyl-amino}-1H-pyrrolo[2,3-b]pyridin-5-carbonitrile] | 0.65 nM | 5.7 nM | 40 nM |  | 0.04 µM | 1.56 µM |  |
| CNc1nsc(NC(=O)N2C[C@H]3C[C@H](N(C)c4c(C#N)cnc5[nH]ccc45)C[C@H]3C2)n1 [Compound H41, (3aR,5s,6aS)-5-((5-cyano-1H-pyrrolo[2,3-b]pyridin-4-yl)(methyl)amino)-N-(3-(methylamino)-1,2,4-thiadiazole-5-yl)hexahydrocyclopentadiene[c]pyrrole-2(1H)-carboxamide] |  |  |  |  | 0.055 µM | 1.64 µM |  |
| N#Cc1cnc2[nH]ccc2c1N[C@H]1C[C@@H](NS(=O)(=O)c2cccc3nonc23)C1 [Compound H19, (cis)-4-{[3-(benzo[c][1,2,5]oxadiazole-4-sulfonamido)-cyclobutyl-1-yl]-amino}-1H-pyrrolo[2,3-b]pyridin-5-carbonitrile] |  |  |  |  | 0.024 µM | 2.3 µM |  |
| CC[C@@H]1CC(NS(=O)(=O)c2cccc3nonc23)C[C@@H]1Nc1c(C#N)cnc2[nH]ccc12 (stereo partly drawn) [Compound H58, N-(3-((5-cyano-1H-pyrrolo[2,3-b]pyridin-4-yl)amino)-4-ethylcyclopentyl)benzo[c][1,2,5] oxadiazole-4-sulfamide] |  |  |  |  | 0.041 µM | 0.98 µM |  |
| N#Cc1cnc2[nH]ccc2c1NC1CCN(S(=O)(=O)c2cccc(C(F)(F)F)c2)CC1 [Compound H34] |  |  |  |  | 0.044 µM | 1.54 µM |  |
| CC[C@@H]1CN(C(=O)NCC(F)(F)F)CC1N(C)c1c(C#N)cnc2[nH]ccc12 (stereo partly drawn) [Compound H02] |  |  |  |  | 0.48 µM | 1.34 µM |  |
| COc1ccc2c(c1)c(CC(=O)O)c(C)n2C(=O)c1ccc(Cl)cc1 [Indomethacin, reference compound] |  |  |  |  |  |  | Paw swelling_0.5 h (%) ([6]; 0.5 h): 32.91 ± 3.22%; Paw swelling rate_1 h (%) ([6]; 1 h): 42.21 ± 4.64%; Paw swelling rate_2 h (%) ([6]; 2 h): 55.10 ± 2.21%; Paw swelling rate_1 h (%) ([7]; 1 h): 34.00 ± 2.30%; Paw swelling rate_2 h (%) ([7]; 2 h): 44.80 ± 3.00%; Paw swelling rate_4 h (%) ([7]; 4 h): 42.70 ± 2.00%; Paw swelling rate_6 h (%) ([7]; 6 h): 36.20 ± 2.00% |

The next lines start with results.

| IC50 [1] | IC50 [2] | IC50 [3] | JAK2/JAK1 [1] | SMILES | IC50 [4] | IC50 [5] | other results |
| --- | --- | --- | --- | --- | --- | --- | --- |
| 5.8 nM | 16 nM | 40 nM | 2.76 | CN(c1c(C#N)cnc2[nH]ccc12)[C@H]1CC[C@H](CS(=O)(=O)N2CCC(C)(O)C2)CC1 (stereo partly drawn) [Compound H62] | 0.029 µM | 1.32 µM |  |
| 2.4 nM | 20 nM | 125 nM | 8.33 | COc1noc(NC(=O)N2C[C@H]3C[C@H](N(C)c4c(C#N)cnc5[nH]ccc45)C[C@H]3C2)n1 [Compound H43, (3aR,5s,6aS)-5-((5-cyano-1H-pyrrolo[2,3-b]pyridin-4-yl)(methyl)amino)-N-(3-methoxy-1,2,4-oxadiazole-5-yl)hexahydrocyclopentadiene[c]pyrrole-2(1H)-carboxamide] | 0.043 µM | 1.44 µM |  |
| 2.6 nM | 15.6 nM | 144 nM | 6.00 | C[C@@H]1CN(C(=O)NCC(F)(F)F)C[C@@H]1Nc1c(C#N)cnc2[nH]ccc12 [Compound H40] | 0.036 µM | 1.24 µM |  |
| 6.7 nM | 13.9 nM | 47 nM | 2.07 | COCCOC1CCCN(S(=O)(=O)C[C@H]2CC[C@@H](N(C)c3c(C#N)cnc4[nH]ccc34)C2)C1 (stereo partly drawn) [Compound H70] | 0.048 µM | 1.53 µM |  |
| 2.9 nM | 18.6 nM | 152 nM | 6.41 | CC[C@@H]1CN(C(=O)Nc2nc(OC)ns2)C[C@@H]1Nc1c(C#N)cnc2[nH]ccc12 [Compound H80, 4-(((cis)-4-ethyl-1-(3-methoxy-1,2,4-thiadiazole-5-aminocarbonyl)pyrrolidin-3-yl)amino)-1H-pyrrolo[2,3-b]pyridin-5-carbonitrile] |  |  |  |
| 5.1 nM | 45 nM | 73 nM | 8.82 | CCC1CN(C(=O)NCC(F)F)CC1Nc1c(C#N)cnc2[nH]ccc12 (stereo not drawn) [Compound H87, 3-((5-cyano-1H-pyrrolo[2,3-b]pyridin-4-yl)amino)-N-(2,2-difluoroethyl)-4-ethylpyrrolidin-1-carboxamide] |  |  |  |
| 0.96 nM | 6.5 nM | 59 nM | 6.77 | CC[C@@H]1CN(C(=O)NCC(C)C)C[C@@H]1Nc1c(C#N)cnc2[nH]ccc12 (relative stereo) [Compound H79, (cis)-3-((5-cyano-1H-pyrrolo[2,3-b]pyridin-4-yl)amino)-4-ethyl-N-isobutylpyrrolidin-1-carboxamide] |  |  |  |
| 4.2 nM | 49 nM | 273 nM | 11.67 | CC[C@@H]1CN(C(=O)CCC(F)(F)F)C[C@@H]1Nc1c(C#N)cnc2[nH]ccc12 (relative stereo) [Compound H77, 4-(((cis)-4-ethyl-1-(4,4,4-trifluorobutyryl)pyrrolidin-3-yl)amino)-1H-pyrrolo[2,3-b]pyridin-5-carbonitrile] |  |  |  |
| 6.87 nM | 122 nM | 386 nM | 17.76 | COCC1CCN(S(=O)(=O)C[C@H]2CC[C@H](N(C)c3c(C#N)cnc4[nH]ccc34)CC2)C1 (stereo partly drawn) [Compound H68, 4-((trans-4-(((3-(methoxymethyl)pyrrolidin-1-yl)sulfonyl)methyl)cyclohexyl)(methyl)amino)-1H-pyrrolo[2,3-b]pyridin-5-carbonitrile] |  |  |  |
